Test results published in ChEMBL document CHEMBL1139134, “Synthesis and cytotoxic activity of 17-carboxylic acid modified 23-hydroxy betulinic acid ester derivatives” (Bioorg Med Chem Lett, 2007).
pIC50: −log10 of the molar value.

What was measured:
[1] = tested on: B16; assay: Antitumor activity in B16 cells xenografted ICR mouse assessed as tumor growth inhibition at 20 mg/kg, ip after 11 days; format: functional; details: 264 h, route intraperitoneal
[2] = tested on: B16; assay: Antitumor activity in B16 cells xenografted ICR mouse assessed as tumor weight at 20 mg/kg, ip after 11 days; format: functional; details: route intraperitoneal
[3] = tested on: H22; assay: Antitumor activity in H22 cells xenografted ICR mouse assessed as tumor weight at 20 mg/kg, ip after 4 days; format: functional; details: route intraperitoneal
[4] = tested on: Bel-7402; assay: Cytotoxicity against human BEL-7402 cells by MTT assay; format: functional, cell-based
[5] = tested on: A549; assay: Cytotoxicity against human A549 cells by MTT assay; format: functional, cell-based
[6] = tested on: B16; assay: Cytotoxicity against mouse B16 cells by MTT assay; format: functional, cell-based
[7] = Cytotoxicity against human SF763 cells by MTT assay; format: functional, cell-based
[8] = tested on: C6; assay: Cytotoxicity against […] by MTT assay
[9] = tested on: H22; assay: Antitumor activity in H22 cells xenografted ICR mouse assessed as tumor growth inhibition at 20 mg/kg, ip after 4 days; format: functional; details: 96 h, route intraperitoneal
[10] = tested on: H22; assay: Antitumor activity in H22 cells xenografted ICR mouse assessed as tumor growth inhibition at 30 mg/kg, iv after 4 days; details: 96 h, read-out: Inhibition
[11] = tested on: B16; assay: Antitumor activity in B16 cells xenografted ICR mouse assessed as tumor growth inhibition at 25 mg/kg, iv after 11 days; format: functional; details: B16, 264 h
[12] = tested on: B16; assay: Antitumor activity in B16 cells xenografted ICR mouse assessed as tumor weight at 25 mg/kg, iv after 11 days; format: functional

| SMILES | inhibition in vivo at 20 mg/kg [1] [%] | Activity [2] [g] | Activity [3] [g] | pIC50 [4] | pIC50 [5] | pIC50 [6] | pIC50 [7] | pIC50 [8] | inhibition in vivo at 20 mg/kg [9] [%] | inhibition in vivo at 30 mg/kg [10] [%] | inhibition in vivo at 25 mg/kg [11] [%] | Activity [12] [g] |
| --- | --- | --- | --- | --- | --- | --- | --- | --- | --- | --- | --- | --- |
| C=C(C)[C@@H]1CC[C@]2(C(=O)O)CC[C@]3(C)[C@H](CC[C@@H]4[C@@]5(C)CC[C@H](O)[C@@](C)(CO)[C@@H]5CC[C@]43C)[C@@H]12 | 13.3 | 1.76 | 1.42 | 4.01 | 4.06 | 4.08 | 3.98 | 4.00 | 10.1 | – | – | – |
| C=C(C)[C@@H]1CC[C@]2(C(=O)OCC#CC)CC[C@]3(C)[C@H](CC[C@@H]4[C@@]5(C)CC[C@H](O)[C@@](C)(CO)[C@@H]5CC[C@]43C)[C@@H]12 | – | – | – | 4.28 | 4.09 | 4.20 | 4.19 | 4.12 | – | – | – | – |
| C=C(C)[C@@H]1CC[C@]2(C(=O)O)CC[C@]3(C)[C@H](CC[C@@H]4[C@@]5(C)CC[C@H](O)C(C)(C)[C@@H]5CC[C@]43C)[C@@H]12 [BETULINIC ACID] | – | – | – | 4.36 | 4.01 | 4.27 | 4.04 | 4.04 | – | – | – | – |
| O=P1(N(CCCl)CCCl)NCCCO1 (configuration not stated) [CYCLOPHOSPHAMIDE ANHYDROUS] | – | – | – | – | – | – | – | – | – | 56.3 | – | – |
| O=c1[nH]cc(F)c(=O)[nH]1 [FLUOROURACIL] | – | – | – | – | – | – | – | – | – | – | 72.4 | 0.56 |
